The values below come from BindingDB's records for doi:10.1021/jm301304e (University of Toyama, 2012).

The assay in a line: Inhibition of bovine liver beta-glucosidase.

What is called IC50 is the concentration that inhibits the measured activity by half. The low end stands for inhibition by little substance, the high end for a need for much substance.

In turn, `OC[C@H]1NC[C@H](O)[C@@H](O)[C@@H]1O` [(2R,3R,4R,5S)-2-(hydroxymethyl)piperidine-3,4,5-triol] registered an IC50 of 210 µM.
For `CCCC[C@H]1N[C@H](CO)[C@@H](O)[C@H](O)[C@H]1O` [(2R,3S,4R,5R,6R)-2-butyl-6-(hydroxymethyl)piperidine-3,4,5-triol], the IC50 was determined as 120 µM.
